The values below come from PubChem BioAssay AID192 (DTP/NCI, 2004).

The subject of the assay is BDF1 mice, B16 melanoma ip, median survival T/C. Nature of the assay: NCI In Vivo Anticancer Drug Screen. Data for tumor model B16 Melanoma (intraperitoneal) in B6D2F1 (BDF1) mice. The note with it: endpoint: median survival time, higher = longer survival. The method, boiled down: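 The ratio T/C compares compound-treated mice with vehicle-treated controls, using survival or tumor size as the endpoint in a transplantable tumor model.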

Where [1] appears, read: dose: 6.25 mg/kg/injection, schedule: Q01DX009 (ip), vehicle: Klucel (hydroxypropylcellulose) (HPC).
Where [2] appears, read: dose: 12.5 mg/kg/injection, schedule: Q01DX009 (ip), vehicle: Klucel (hydroxypropylcellulose) (HPC).
Where [3] appears, read: dose: 25.0 mg/kg/injection, schedule: Q01DX009 (ip), vehicle: Klucel (hydroxypropylcellulose) (HPC).
Setting [4] is: dose: 1.56 mg/kg/injection, schedule: Q01DX009 (ip), vehicle: Klucel (hydroxypropylcellulose) (HPC).
[5] abbreviates: dose: 3.13 mg/kg/injection, schedule: Q01DX009 (ip), vehicle: Klucel (hydroxypropylcellulose) (HPC).
Setting [6] is: dose: 100.0 mg/kg/injection, schedule: Q01DX009 (ip), vehicle: saline with Tween-80.
Where [7] appears, read: dose: 200.0 mg/kg/injection, schedule: Q01DX009 (ip), vehicle: saline with Tween-80.
Where [8] appears, read: dose: 100.0 mg/kg/injection, schedule: Q01DX009 (ip), vehicle: Klucel (hydroxypropylcellulose) (HPC).
Setting [9] is: dose: 200.0 mg/kg/injection, schedule: Q01DX009 (ip), vehicle: Klucel (hydroxypropylcellulose) (HPC).
Where [10] appears, read: dose: 400.0 mg/kg/injection, schedule: Q01DX009 (ip), vehicle: Klucel (hydroxypropylcellulose) (HPC).
Where [11] appears, read: dose: 50.0 mg/kg/injection, schedule: Q01DX009 (ip), vehicle: Klucel (hydroxypropylcellulose) (HPC).
Setting [12] is: dose: 3.12 mg/kg/injection, schedule: Q01DX009 (ip), vehicle: saline.
[13] abbreviates: dose: 6.25 mg/kg/injection, schedule: Q01DX009 (ip), vehicle: saline.
Setting [14] is: dose: 12.5 mg/kg/injection, schedule: Q01DX009 (ip), vehicle: saline.

Several values for one entry are separate records, joined by “and”; a condition that tells them apart may be missing. Identical values can stand only once. Toxic doses and inconclusive results are not listed.

In the case of `O=C1C=CC(=C(c2ccccc2)c2ccccc2)C=C1`, the T/C is 96 % of control under setting [1]; 100 % of control under setting [2]; 96 % of control (dose: 12.5 mg/kg/injection, schedule: Q04DX003 (ip), vehicle: Klucel (hydroxypropylcellulose) (HPC)); 96 % of control under setting [3]; 100 % of control (dose: 25.0 mg/kg/injection, schedule: Q04DX003 (ip), vehicle: Klucel (hydroxypropylcellulose) (HPC)).

Regarding `c1ccc(CC[P+](c2ccccc2)(c2ccccc2)c2ccccc2)cc1`, the T/C (dose: 0.78 mg/kg/injection, schedule: Q01DX009 (ip), vehicle: Klucel (hydroxypropylcellulose) (HPC)) is 92 % of control; the T/C under setting [4] is 103 % of control; the T/C under setting [5] was 92 % of control.

Regarding `CN(CCN(C)Cc1ccccc1)Cc1ccccc1`, the T/C is 100 % of control (dose: 25.0 mg/kg/injection, schedule: Q01DX009 (ip), vehicle: saline) and 92 % of control (dose: 50.0 mg/kg/injection, schedule: Q01DX009 (ip), vehicle: saline).

Regarding `COc1ccccc1NC(=O)c1ccccc1`, the T/C was 97 % of control under setting [6]; 107 % of control under setting [7]; 97 % of control (dose: 400.0 mg/kg/injection, schedule: Q01DX009 (ip), vehicle: saline with Tween-80).

On to `CCc1ccc(NC(=O)Nc2cccc(Cl)c2)cc1`, for which the T/C reads like this: under setting [8], 91 % of control; under setting [9], 102 % of control; under setting [10], 88 % of control.

Regarding `CC(C)NNC(C)Cc1ccccc1` (configuration not stated), the T/C by setting is: under setting [4], 91 % of control; (dose: 3.12 mg/kg/injection, schedule: Q01DX009 (ip), vehicle: Klucel (hydroxypropylcellulose) (HPC)) 86 % of control; under setting [1], 86 % of control; under setting [2], 91 % of control; under setting [3], 97 % of control.

As to `CCOC(=O)c1ccc(=O)[nH]c1.[Ag]`, the T/C reads like this: under setting [5], 108 % of control; under setting [1], 100 % of control; under setting [2], 91 % of control.

`NC1=NC(=O)C(c2ccccc2)O1` (configuration not stated): the T/C by setting is: under setting [2], 94 % of control; under setting [3], 97 % of control; under setting [8], 102 % of control.

Regarding `Cc1cc(C)c(NC(=O)Nc2ccccc2)c(C)c1`, the T/C under setting [3] is 94 % of control, the T/C under setting [11] is 94 % of control and the T/C under setting [8] is 108 % of control.

`Cc1c2cnccc2c(C)c2c1c1ccccc1n2CC1CO1` (configuration not stated): the T/C (dose: 3.75 mg/kg/injection, schedule: Q01DX009 (ip), vehicle: Klucel (hydroxypropylcellulose) (HPC)) was 117 % of control; the T/C (dose: 7.5 mg/kg/injection, schedule: Q01DX009 (ip), vehicle: Klucel (hydroxypropylcellulose) (HPC)) was 114 % of control; the T/C (dose: 15.0 mg/kg/injection, schedule: Q01DX009 (ip), vehicle: Klucel (hydroxypropylcellulose) (HPC)) is 121 % of control.

Turning to `C=CCN(CC=C)CCN1CCN(CCCN2c3ccccc3Sc3ccc(C(F)(F)F)cc32)CC1`, the T/C is 100 % of control under setting [12], 107 % of control under setting [13] and 97 % of control under setting [14].

`O=C(Nc1ccccc1F)c1ccc(Cl)c(Cl)c1`: the T/C is 100 % of control under setting [11], 87 % of control under setting [8], 90 % of control under setting [9] and 94 % of control under setting [10].

On to `CC(C)N(C(=O)Nc1ccccc1Cl)c1ccccc1`, for which the T/C was 89 % of control under setting [8], 91 % of control under setting [9] and 92 % of control under setting [10].

Regarding `CC(CN(C)C)CN1c2ccccc2Sc2ccc(C(F)(F)F)cc21` (configuration not stated), the T/C by setting is: (dose: 0.78 mg/kg/injection, schedule: Q01DX009 (ip), vehicle: saline) 109 % of control; (dose: 1.56 mg/kg/injection, schedule: Q01DX009 (ip), vehicle: saline) 105 % of control; under setting [12], 116 % of control; under setting [13], 103 % of control; under setting [14], 103 % of control.

On to `CC(C)=CCC/C(C)=C\CCl`, for which the T/C (dose: 25.0 mg/kg/injection, schedule: Q01DX009 (ip), vehicle: saline with Tween-80) was 105 % of control and the T/C (dose: 50.0 mg/kg/injection, schedule: Q01DX009 (ip), vehicle: saline with Tween-80) was 101 % of control.

Consider `C=Cc1c2[n-]c(c1C)/C=c1\[n-]/c(c(C)c1C=C)=C\c1[n-]c(c(CCC(=O)O)c1C)/C=c1\[n-]/c(c(C)c1CCC(=O)O)=C\2.[Co]`, for which the T/C is 95 % of control under setting [3]; 94 % of control under setting [11]; 92 % of control under setting [8]; 87 % of control under setting [9]; 90 % of control (dose: 1:1.0 dilution, schedule: Q01DX009 (ip), vehicle: saline); 99 % of control (dose: 1:2.0 dilution, schedule: Q01DX009 (ip), vehicle: saline). Also, the T/C is 105 % of control (dose: 1:4.0 dilution, schedule: Q01DX009 (ip), vehicle: saline) and 112 % of control (dose: 1:8.0 dilution, schedule: Q01DX009 (ip), vehicle: saline).

Consider `CCCCCCCCC(O)CC` (configuration not stated), for which the T/C under setting [11] was 98 % of control, the T/C under setting [8] was 97 % of control and the T/C under setting [9] is 93 % of control.

As to `Cc1cc2c(cc1C)NC(C)CC(=O)N2` (configuration not stated), the T/C is 106 % of control under setting [11], 108 % of control under setting [8] and 106 % of control under setting [9].

As for `COc1cc2c(c(OC)c1OC)-c1ccc(OC)c(=O)cc1[C@@H](NC(C)=O)CC2`, the T/C is 123 % of control (dose: 0.12 mg/kg/injection, schedule: Q01DX009 (ip), vehicle: saline); 120 % of control (dose: 0.13 mg/kg/injection, schedule: Q01DX009 (ip), vehicle: saline); 179 % of control (dose: 0.25 mg/kg/injection, schedule: Q01DX009 (ip), vehicle: water); 152 % of control (dose: 0.4 mg/kg/injection, schedule: Q01DX009 (ip), vehicle: saline); 113 % of control (dose: 0.5 mg/kg/injection, schedule: Q01DX009 (ip), vehicle: saline); 150 % of control and 154 % of control (dose: 0.5 mg/kg/injection, schedule: Q01DX009 (ip), vehicle: water). The T/C (dose: 1.0 mg/kg/injection, schedule: Q01DX009 (ip), vehicle: water) was 166 % of control; the T/C (dose: 63.0 micrograms/kg/injection, schedule: Q01DX009 (ip), vehicle: saline) was 121 % of control; the T/C (dose: 250.0 micrograms/kg/injection, schedule: Q01DX009 (ip), vehicle: saline) is 150 % of control; the T/C (dose: 500.0 micrograms/kg/injection, schedule: Q01DX009 (ip), vehicle: saline) is 151 % of control; the T/C (dose: 1000.0 micrograms/kg/injection, schedule: Q01DX009 (ip), vehicle: saline) is 155 % of control.

In the case of `COc1cccc(C(=O)c2ccncc2C)c1OC`, the T/C is 98 % of control (dose: 25.0 mg/kg/injection, schedule: Q01DX009 (ip), vehicle: water); 96 % of control (dose: 50.0 mg/kg/injection, schedule: Q01DX009 (ip), vehicle: water); 96 % of control (dose: 100.0 mg/kg/injection, schedule: Q01DX009 (ip), vehicle: water).

Turning to `C=C1C(C)C2C(Cc3ccccc3)NC(=O)C23OC(=O)/C=C\CC(=O)CCC(C)C/C=C/C3C1O` (configuration not stated), the T/C (dose: 2.5 mg/kg/injection, schedule: Q01DX009 (ip), vehicle: Klucel (hydroxypropylcellulose) (HPC)) is 94 % of control.

With `c1ccc2c(c1)Cc1cc3ccccc3nc1-2`, the T/C was 102 % of control (dose: 100.0 mg/kg/injection, schedule: Q04DX003 (ip), vehicle: Klucel (hydroxypropylcellulose) (HPC)); 114 % of control (dose: 200.0 mg/kg/injection, schedule: Q04DX003 (ip), vehicle: Klucel (hydroxypropylcellulose) (HPC)); 98 % of control (dose: 400.0 mg/kg/injection, schedule: Q04DX003 (ip), vehicle: Klucel (hydroxypropylcellulose) (HPC)).

For the compound `NNC(=O)c1ccc(Cl)cc1Nc1ccc(F)cc1`, the T/C runs as follows: (dose: 25.0 mg/kg/injection, schedule: Q04DX003 (ip), vehicle: saline) 92 % of control; (dose: 50.0 mg/kg/injection, schedule: Q04DX003 (ip), vehicle: saline) 97 % of control; (dose: 100.0 mg/kg/injection, schedule: Q04DX003 (ip), vehicle: saline) 100 % of control.

As to `Clc1ccc2c(c1)C(=P(c1ccccc1)(c1ccccc1)c1ccccc1)c1cc(Cl)cc(Cl)c1-2`, the T/C was 91 % of control under setting [6] and 89 % of control under setting [7].
